Measured values taken from patent US20110217727A1, “METHOD FOR PATTERNING MAGNETIC MATERIALS IN LIVE CELL, METHOD FOR IMAGING PATTERN OF MAGNETIC MATERIALS, AND APPARATUS USED FOR SAME” (MEDISCOV INC., priority 2008, published 2011).

How the values were obtained:
[1] = biological target: CSK-EGFP (Homo sapiens, UniProt P41240); assay: Fluorescent pattern of CSK-EGFP co-localized with magnetic materials in live HeLa cells under a magnetic field; type: cell-based; conditions: HeLa cells transfected with CMV-CSK-EGFP; ligand presented on magnetic particles (MNP); NDGA 25~50 μM; magnetic field applied; FIG. 10(A)
Sequence of CSK-EGFP (P41240 whole entry): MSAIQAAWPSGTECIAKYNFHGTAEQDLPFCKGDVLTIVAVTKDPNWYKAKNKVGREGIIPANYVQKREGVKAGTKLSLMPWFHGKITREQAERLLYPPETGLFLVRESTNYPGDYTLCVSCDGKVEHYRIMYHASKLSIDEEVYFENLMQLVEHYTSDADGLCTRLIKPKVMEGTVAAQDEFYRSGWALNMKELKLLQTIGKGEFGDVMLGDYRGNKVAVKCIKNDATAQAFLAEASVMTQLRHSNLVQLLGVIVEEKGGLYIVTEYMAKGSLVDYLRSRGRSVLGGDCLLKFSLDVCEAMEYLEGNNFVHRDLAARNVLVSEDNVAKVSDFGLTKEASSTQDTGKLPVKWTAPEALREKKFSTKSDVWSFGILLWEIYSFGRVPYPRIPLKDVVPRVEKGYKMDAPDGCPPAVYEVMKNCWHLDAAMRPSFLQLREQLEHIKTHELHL
Excerpt: (§1) In this embodiment, it was observed whether a magnetized pattern of a plurality of magnetic materials formed by applying a magnetic field could be imaged by fluorescent labels when a surface-modified magnetic material was labeled with a fluorescent label through a mediator indirectly as well as directly. In addition, it was identified whether a fluorescent pattern was formed and overlapped (co-localized) with a pattern formed by magnetic materials in a direction of a line of magnetic force or not.
(§2) In addition, CSK (GenBank Acc. No. NM—004383.1) or SNF1LK (GenBank Acc. No. BCO38504) which binds to dasatinib was used for another linker constituting a mediator.
After HeLa cells were subcultured to 5,000˜10,000 cells/well on a 96-well plate, the HeLa cells were transfected by the expression vector DNA prepared as above. […] Magnetic materials coated with dasatinib-biotin were into the cells transfected with DNA by the method mentioned in Example 2, and then NDGA (Nordihydroguaiaretic acid, Sigma) was treated to the final concentration of 25˜50 μM.
In this embodiment, Olympus fluorescence microscope, FV1000, equipped with the object lens of Uplan Apo 40×/0.85 was used to obtain transmitted images in the cells.

[2] = biological target: T1, SNF1LK-EGFP (Homo sapiens, UniProt P57059); assay: Fluorescent pattern of SNF1LK-EGFP co-localized with magnetic materials in live HeLa cells under a magnetic field; type: cell-based; conditions: HeLa cells transfected with CMV-SNF1LK-EGFP; ligand presented on magnetic particles (MNP); NDGA 25~50 μM; magnetic field applied; FIG. 10(B)
T1 construct: ORF(open reading frame) clone without a stop codon was purchased from Open Biosystems; expressed in transfected cells; host or cells: HeLa
T1 sequence (P57059 whole entry): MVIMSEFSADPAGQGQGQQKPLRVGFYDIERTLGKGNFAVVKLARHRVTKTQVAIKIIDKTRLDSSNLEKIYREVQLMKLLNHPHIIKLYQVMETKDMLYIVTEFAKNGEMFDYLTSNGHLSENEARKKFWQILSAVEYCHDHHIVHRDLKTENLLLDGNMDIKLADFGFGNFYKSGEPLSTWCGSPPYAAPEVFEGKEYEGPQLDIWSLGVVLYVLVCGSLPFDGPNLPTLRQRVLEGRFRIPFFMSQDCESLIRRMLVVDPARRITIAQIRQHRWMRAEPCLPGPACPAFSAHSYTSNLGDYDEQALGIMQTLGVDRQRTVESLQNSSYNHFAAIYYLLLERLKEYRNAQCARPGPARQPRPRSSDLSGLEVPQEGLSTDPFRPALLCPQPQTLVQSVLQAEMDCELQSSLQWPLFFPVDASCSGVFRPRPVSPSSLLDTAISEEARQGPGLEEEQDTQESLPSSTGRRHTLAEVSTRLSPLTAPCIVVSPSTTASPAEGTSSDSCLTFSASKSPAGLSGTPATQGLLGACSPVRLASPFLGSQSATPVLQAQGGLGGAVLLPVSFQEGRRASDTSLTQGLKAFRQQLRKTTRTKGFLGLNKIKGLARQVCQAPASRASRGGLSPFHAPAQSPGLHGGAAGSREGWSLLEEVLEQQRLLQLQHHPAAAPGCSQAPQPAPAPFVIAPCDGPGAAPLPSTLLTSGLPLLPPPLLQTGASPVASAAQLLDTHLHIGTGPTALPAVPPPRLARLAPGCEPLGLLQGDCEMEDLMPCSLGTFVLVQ
Excerpt: as §1, §2
A clone of SNF1LK (GenBank Acc. No. BCO38504) ORF(open reading frame) clone without a stop codon was purchased from Open Biosystems. SNF1LK ORF clone and CSK ORF clone were cloned into pCMV-DEST-EGFP by a known cloning method to produce CMV-SNF1LK-EGFP and CMV-CSK-EGFP expression vectors (Hartley, et al. (2000) DNA cloning using in vitro site-specific recombination. Genome Res. 10, 1788-1795).
After HeLa cells were subcultured to 5,000˜10,000 cells/well on a 96-well plate, the HeLa cells were transfected by the expression vector DNA prepared as above. […]

Cc1nc(Nc2ncc(C(=O)Nc3c(C)cccc3Cl)s2)cc(N2CCN(CCO)CC2)n1 [dasatinib, N-(2-chloro-6-methyl-phenyl)-2-(6-(4-(2-hydroxyethyl)-piperazin-1-yl)-2-methylpyrimidin-4-ylamino)thiazole-5-carboxamide]
fluorescent pattern of EGFP in a magnetized direction (direction of a line of magnetic force) [1]: identified | fluorescent pattern of EGFP in a magnetized direction (direction of a line of magnetic force) [2]: identified
